Source: the supplement of paper PMC8149375

Assays:
Details in all cases: treatment: drug alone; 5 days
CAKI-1 [1] = assay: AUC of dose-response viability curve, drug alone (arbitrary (AUC of normalised viability)); higher = less growth inhibition
Procedure: (§1)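 Primary HTS: 8 RCC cell lines treated with 8 doses (up to 10 uM) of each library drug alone for 5 days; viability read by CellTiter-Glo and normalised to DMSO. GI50 was fitted with XLfit (4-parameter), AUC is the area under the dose-response curve, and minimum viability is the lowest fraction of DMSO viability across doses.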

ACHN [2] = assay: as above
Procedure: as §1

769-P [3] = assay: as above
Procedure: as §1

786-O [4] = assay: as above
Procedure: as §1

SN12C [5] = assay: as above
Procedure: as §1

UO-31 [6] = assay: as above
Procedure: as §1

A498 [7] = assay: as above
Procedure: as §1

TK-10 [8] = assay: as above
Procedure: as §1

CAKI-1 [9] = assay: minimum viability across doses, drug alone, relative to DMSO (fraction); higher = less growth inhibition
Procedure: as §1

ACHN [10] = assay: as above
Procedure: as §1

769-P [11] = assay: as above
Procedure: as §1

786-O [12] = assay: as above
Procedure: as §1

SN12C [13] = assay: as above
Procedure: as §1

UO-31 [14] = assay: as above
Procedure: as §1

A498 [15] = assay: as above
Procedure: as §1

TK-10 [16] = assay: as above
Procedure: as §1

CAKI-1 [17] = assay: GI50, drug alone; higher = less potent
Procedure: as §1

ACHN [18] = assay: GI50, drug alone; higher = less potent
Procedure: as §1

769-P [19] = assay: GI50, drug alone; higher = less potent
Procedure: as §1

786-O [20] = assay: GI50, drug alone; higher = less potent
Procedure: as §1

SN12C [21] = assay: GI50, drug alone; higher = less potent
Procedure: as §1

UO-31 [22] = assay: GI50, drug alone; higher = less potent
Procedure: as §1

A498 [23] = assay: GI50, drug alone; higher = less potent
Procedure: as §1

TK-10 [24] = assay: GI50, drug alone; higher = less potent
Procedure: as §1

SMILES | AUC of dose-response viability curve (CAKI-1 [1]) | AUC of dose-response viability curve (ACHN [2]) | AUC of dose-response viability curve (769-P [3]) | AUC of dose-response viability curve (786-O [4]) | AUC of dose-response viability curve (SN12C [5]) | AUC of dose-response viability curve (UO-31 [6]) | AUC of dose-response viability curve (A498 [7]) | AUC of dose-response viability curve (TK-10 [8]) | minimum viability across doses (CAKI-1 [9]) | minimum viability across doses (ACHN [10]) | minimum viability across doses (769-P [11]) | minimum viability across doses (786-O [12]) | minimum viability across doses (SN12C [13]) | minimum viability across doses (UO-31 [14]) | minimum viability across doses (A498 [15]) | minimum viability across doses (TK-10 [16]) | GI50, drug alone (CAKI-1 [17]) | GI50, drug alone (ACHN [18]) | GI50, drug alone (769-P [19]) | GI50, drug alone (786-O [20]) | GI50, drug alone (SN12C [21]) | GI50, drug alone (UO-31 [22]) | GI50, drug alone (A498 [23]) | GI50, drug alone (TK-10 [24])
Nc1cccc2c1CN(C1CCC(=O)NC1=O)C2=O (stereo unspecified) [Lenalidomide (Revlimid)] | 3.56 | 3.29 | 3.64 | 1.86 | 3.28 | 5.03 | 4.04 | 3.21 | 0.972 | 0.878 | 0.963 | 0.325 | 0.865 | 1.19 | 0.98 | 0.864 | > 10 µM | > 10 µM | > 10 µM | < 0.003 µM | > 10 µM | > 10 µM | > 10 µM | > 10 µM
O=C(NCc1ccccc1)c1csc(Nc2ccncn2)n1 [Thiazovivin] | 3.17 | 3.15 | 3.01 | 2.69 | 3.58 | 3.55 | 3.9 | 3.36 | 0.609 | 0.369 | 0.717 | 0.526 | 0.804 | 0.279 | 0.891 | 0.69 | > 10 µM | 7.22 µM | > 10 µM | > 10 µM | > 10 µM | 4.49 µM | > 10 µM | > 10 µM
N#C/C(=C\c1ccc(O)c(O)c1)C(=O)NCc1ccccc1 [AG-490] | 3.57 | 3.09 | 3.27 | 2.89 | 3.37 | 4.19 | 3.87 | 3.21 | 0.948 | 0.301 | 0.823 | 0.369 | 0.788 | 0.843 | 1.04 | 0.615 | > 10 µM | 7.43 µM | > 10 µM | 5.99 µM | > 10 µM | > 10 µM | > 10 µM | > 10 µM
CC(C)NC[C@@H](C(=O)N1CCN(c2ncnc3c2[C@H](C)C[C@H]3O)CC1)c1ccc(Cl)cc1 [GDC-0068] | 3.21 | 2.85 | 3.51 | 1.88 | 2.98 | 3.66 | 4.05 | 2.3 | 0.52 | 0.529 | 0.81 | 0.252 | 0.758 | 0.0182 | 0.82 | 0.375 | 8.11 µM | 9.24 µM | > 10 µM | 0.251 µM | > 10 µM | 3.09 µM | > 10 µM | 2.26 µM
